Results as given in patent publication US8785457B2 (Cellzome Limited, priority 2009, dated 2014).
Like-named read-outs stand apart in the source and are kept apart here.

Legend:
[1] = target: T1, DNA-dependent protein kinase (DNA-PK) (Homo sapiens, UniProt P78527); assay: kinobeads assay, DNA-PK; type: binding; conditions: kinobeads assay
T1 construct: endogenous in cells; host or cells: Jurkat, clone E6-1 (ATCC TIB-152) cell lysate
Procedure, shortened: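 Competitive binding in Jurkat cell lysate (5 mg/mL protein) against beads carrying an immobilized phenylmorpholin-chromen ligand, in DP buffer pH 7.4 with NP40, DTT and NaF. Bead-bound kinases were eluted and quantified by antibody dot blot with infrared detection, and IC50 was taken from dose-response curves of a 1:3 dilution series.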

PI3 Kgamma (PI3 Kg) = target: T2, PI3 Kgamma (PI3 Kg) (Homo sapiens, UniProt P48736); assay: kinobeads assay, PI3Kgamma; type: binding; conditions: kinobeads assay, Table 6; read-out: Inhibition values (IC50) PI3Kg
T2 construct: endogenous in cells; host or cells: cell lysate
Procedure, shortened: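 Competitive binding in cell lysate: test compounds at various concentrations compete with beads carrying an immobilized phenylmorpholin-chromen ligand. Bead-captured kinases are eluted and quantified by multiplexed immunodetection. IC50 values come from dose-response curves for each kinase.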

[2] = Table 6, read-out: Inhibition values (IC50) DNAPK

T1 sequence (P78527 whole entry): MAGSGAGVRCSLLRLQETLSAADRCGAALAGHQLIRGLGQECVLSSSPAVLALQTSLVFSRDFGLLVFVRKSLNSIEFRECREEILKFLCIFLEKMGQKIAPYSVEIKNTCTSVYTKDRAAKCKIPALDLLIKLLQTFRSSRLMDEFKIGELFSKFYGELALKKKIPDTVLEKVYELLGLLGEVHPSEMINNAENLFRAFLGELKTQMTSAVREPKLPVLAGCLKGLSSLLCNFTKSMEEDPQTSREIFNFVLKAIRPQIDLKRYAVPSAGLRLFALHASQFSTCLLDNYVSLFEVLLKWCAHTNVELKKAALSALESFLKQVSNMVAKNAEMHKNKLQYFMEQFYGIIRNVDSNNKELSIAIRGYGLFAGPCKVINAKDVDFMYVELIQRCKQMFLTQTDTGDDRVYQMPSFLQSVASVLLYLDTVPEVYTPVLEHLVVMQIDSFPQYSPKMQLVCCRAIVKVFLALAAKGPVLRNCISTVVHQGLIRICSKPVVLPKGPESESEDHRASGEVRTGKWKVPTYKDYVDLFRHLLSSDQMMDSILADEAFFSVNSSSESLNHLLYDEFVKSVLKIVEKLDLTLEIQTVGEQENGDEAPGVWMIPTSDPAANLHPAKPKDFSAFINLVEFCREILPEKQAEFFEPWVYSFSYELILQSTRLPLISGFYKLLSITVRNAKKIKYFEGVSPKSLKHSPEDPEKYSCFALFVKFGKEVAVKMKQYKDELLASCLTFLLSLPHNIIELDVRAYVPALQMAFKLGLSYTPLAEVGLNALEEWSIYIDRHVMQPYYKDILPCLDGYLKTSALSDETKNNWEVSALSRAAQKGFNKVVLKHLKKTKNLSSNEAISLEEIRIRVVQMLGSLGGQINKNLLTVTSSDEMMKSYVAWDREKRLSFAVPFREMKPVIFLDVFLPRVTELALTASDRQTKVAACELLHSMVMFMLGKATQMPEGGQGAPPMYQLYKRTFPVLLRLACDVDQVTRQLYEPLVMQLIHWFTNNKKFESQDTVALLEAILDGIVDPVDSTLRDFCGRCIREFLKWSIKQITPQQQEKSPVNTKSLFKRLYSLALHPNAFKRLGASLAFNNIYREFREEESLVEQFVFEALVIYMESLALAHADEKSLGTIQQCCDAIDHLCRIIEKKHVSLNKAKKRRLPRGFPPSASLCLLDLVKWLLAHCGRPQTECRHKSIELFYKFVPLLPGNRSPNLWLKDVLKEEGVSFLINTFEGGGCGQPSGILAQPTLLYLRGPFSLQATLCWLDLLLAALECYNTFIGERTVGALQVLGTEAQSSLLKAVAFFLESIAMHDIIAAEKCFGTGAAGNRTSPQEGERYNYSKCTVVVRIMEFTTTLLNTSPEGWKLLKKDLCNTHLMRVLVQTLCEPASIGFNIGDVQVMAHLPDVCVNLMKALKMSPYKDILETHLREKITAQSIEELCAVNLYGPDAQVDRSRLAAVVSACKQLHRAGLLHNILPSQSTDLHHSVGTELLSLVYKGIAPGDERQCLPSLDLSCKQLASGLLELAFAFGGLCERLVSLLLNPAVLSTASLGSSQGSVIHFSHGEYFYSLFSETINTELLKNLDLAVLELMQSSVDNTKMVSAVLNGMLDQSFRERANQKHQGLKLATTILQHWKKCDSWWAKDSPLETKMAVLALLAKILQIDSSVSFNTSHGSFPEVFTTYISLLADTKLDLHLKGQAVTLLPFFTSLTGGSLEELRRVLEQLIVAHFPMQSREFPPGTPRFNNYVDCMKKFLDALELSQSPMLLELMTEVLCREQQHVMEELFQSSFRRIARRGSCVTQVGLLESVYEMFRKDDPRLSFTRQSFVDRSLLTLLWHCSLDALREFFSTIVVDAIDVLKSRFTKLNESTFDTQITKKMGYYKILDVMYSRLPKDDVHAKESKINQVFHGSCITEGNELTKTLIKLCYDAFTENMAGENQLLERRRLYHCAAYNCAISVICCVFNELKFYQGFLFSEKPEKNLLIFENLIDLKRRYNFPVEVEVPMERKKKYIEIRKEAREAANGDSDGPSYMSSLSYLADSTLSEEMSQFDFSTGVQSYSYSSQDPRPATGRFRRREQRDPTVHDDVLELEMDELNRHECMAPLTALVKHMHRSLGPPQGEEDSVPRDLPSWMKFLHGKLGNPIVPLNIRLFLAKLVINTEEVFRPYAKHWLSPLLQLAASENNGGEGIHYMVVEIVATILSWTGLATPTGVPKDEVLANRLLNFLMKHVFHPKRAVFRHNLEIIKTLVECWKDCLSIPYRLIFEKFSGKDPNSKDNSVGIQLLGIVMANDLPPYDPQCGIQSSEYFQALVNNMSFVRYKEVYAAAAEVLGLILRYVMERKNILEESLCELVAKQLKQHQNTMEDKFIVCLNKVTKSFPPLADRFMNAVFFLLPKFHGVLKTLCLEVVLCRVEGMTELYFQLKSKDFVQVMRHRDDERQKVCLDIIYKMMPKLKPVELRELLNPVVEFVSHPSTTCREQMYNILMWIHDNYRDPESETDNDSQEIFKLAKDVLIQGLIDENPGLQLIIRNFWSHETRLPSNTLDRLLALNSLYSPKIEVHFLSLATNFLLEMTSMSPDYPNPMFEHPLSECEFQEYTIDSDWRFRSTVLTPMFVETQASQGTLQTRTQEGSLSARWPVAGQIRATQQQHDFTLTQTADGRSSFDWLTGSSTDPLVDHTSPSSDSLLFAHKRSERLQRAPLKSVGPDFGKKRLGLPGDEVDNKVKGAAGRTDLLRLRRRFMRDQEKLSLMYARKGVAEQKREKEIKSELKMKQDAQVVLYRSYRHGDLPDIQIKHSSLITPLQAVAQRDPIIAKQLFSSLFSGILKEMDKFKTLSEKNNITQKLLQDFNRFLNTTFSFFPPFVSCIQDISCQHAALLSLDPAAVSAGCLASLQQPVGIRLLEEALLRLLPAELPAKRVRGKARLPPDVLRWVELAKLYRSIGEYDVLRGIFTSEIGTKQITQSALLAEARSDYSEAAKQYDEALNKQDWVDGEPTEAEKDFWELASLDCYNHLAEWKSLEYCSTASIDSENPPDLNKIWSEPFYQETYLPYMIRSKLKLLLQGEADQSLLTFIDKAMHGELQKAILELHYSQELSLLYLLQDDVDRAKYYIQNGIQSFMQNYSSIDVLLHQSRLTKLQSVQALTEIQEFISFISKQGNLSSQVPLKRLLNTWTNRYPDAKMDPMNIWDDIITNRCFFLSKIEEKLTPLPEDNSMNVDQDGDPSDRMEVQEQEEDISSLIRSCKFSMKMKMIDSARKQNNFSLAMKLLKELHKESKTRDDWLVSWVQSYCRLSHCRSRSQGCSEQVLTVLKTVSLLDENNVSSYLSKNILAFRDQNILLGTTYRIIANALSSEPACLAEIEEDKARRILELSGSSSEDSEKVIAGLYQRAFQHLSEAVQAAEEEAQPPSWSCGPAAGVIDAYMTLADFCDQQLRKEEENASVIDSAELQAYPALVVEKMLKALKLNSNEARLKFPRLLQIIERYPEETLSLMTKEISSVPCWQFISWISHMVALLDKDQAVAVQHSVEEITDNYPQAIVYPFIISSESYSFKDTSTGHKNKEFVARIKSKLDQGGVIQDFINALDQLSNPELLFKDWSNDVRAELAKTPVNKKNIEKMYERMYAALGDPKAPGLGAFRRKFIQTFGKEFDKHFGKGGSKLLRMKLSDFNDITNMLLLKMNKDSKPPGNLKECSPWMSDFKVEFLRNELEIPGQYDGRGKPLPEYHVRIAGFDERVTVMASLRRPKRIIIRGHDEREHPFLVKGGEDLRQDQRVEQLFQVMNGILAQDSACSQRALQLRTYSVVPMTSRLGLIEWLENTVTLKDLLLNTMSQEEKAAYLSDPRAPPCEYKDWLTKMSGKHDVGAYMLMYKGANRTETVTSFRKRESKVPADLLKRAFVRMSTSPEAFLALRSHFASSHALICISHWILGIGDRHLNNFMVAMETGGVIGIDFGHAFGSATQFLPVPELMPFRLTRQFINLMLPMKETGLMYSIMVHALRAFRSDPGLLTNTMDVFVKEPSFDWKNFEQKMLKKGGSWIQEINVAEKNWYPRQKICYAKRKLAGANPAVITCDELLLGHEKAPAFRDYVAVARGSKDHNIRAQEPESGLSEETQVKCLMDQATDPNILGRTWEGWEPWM

Compound | IC50 [1, 2] [µM] | IC50 (PI3 Kgamma (PI3 Kg)) [µM] | IC50 ([1]; Table 4, read-out: Inhibition values (IC50) DNA-PK) [µM]
CCNC(=O)Nc1ccc(-c2nc3c(c(N4CCOC[C@@H]4C)n2)CCN(C(=O)OCC)C3)cc1 [Example 77, (S)-ethyl 2-(4-(3-ethylureido)phenyl)-4-(3-methylmorpholino)-5,6-dihydropyrido[3,4-d]pyrimidine-7(8H)-carboxylate] | > 10 | > 10 | –
CCNC(=O)Nc1ccc(-c2nc3c(c(N4CCOCC4)n2)CCN(C(=O)OCC)C3)cc1 [Example 96, ethyl 2-(4-(3-ethylureido)phenyl)-4-morpholino-5,6-dihydropyrido[3,4-d]pyrimidine-7(8H)-carboxylate] | > 10 | > 10 | –
CCNC(=O)Nc1cc(F)c(-c2nc3c(c(N4CCOC[C@@H]4C)n2)CCN(C)C3)cc1F [Example 108, (S)-1-(2,5-difluoro-4-(7-methyl-4-(3-methylmorpholino)-5,6,7,8-tetrahydropyrido[3,4-d]pyrimidin-2-yl)phenyl)-3-ethylurea] | > 10 | > 10 | –
CCNC(=O)Nc1ccc(-c2nc3c(c(N4CCOC[C@@H]4C)n2)CN(C(C)C)C3)cc1 [Example 74, (S)-1-ethyl-3-(4-(6-isopropyl-4-(3-methylmorpholino)-6,7-dihydro-5H-pyrrolo[3,4-d]pyrimidin-2-yl)phenyl)urea] | > 10 | > 10 | –
CCOC(=O)N1Cc2nc(-c3ccc(NC(=O)NCCF)cc3)nc(N3CCOC[C@@H]3C)c2C1 [Example 120, (S)-ethyl 2-(4-(3-(2-fluoroethyl)ureido)phenyl)-4-(3-methylmorpholino)-5H-pyrrolo[3,4-d]pyrimidine-6(7H)-carboxylate] | > 10 | > 10 | –
CC(=O)N1CCc2c(nc(-c3ccc(NC(=O)NC4CC4)cc3)nc2N2CCOC[C@@H]2C)C1 [Example 62, (S)-1-(4-(7-acetyl-4-(3-methylmorpholino)-5,6,7,8-tetrahydropyrido[3,4-d]pyrimidin-2-yl)phenyl)-3-cyclopropylurea] | > 10 | > 10 | > 10
CCNC(=O)Nc1ccc(-c2nc3c(c(N4CCOCC4)n2)CN(C(=O)OCC)C3)cc1 [Example 70, Ethyl 2-(4-(3-ethylureido)phenyl)-4-morpholino-5H-pyrrolo[3,4-d]pyrimidine-6(7H)-carboxylate] | 1 to 10 | > 10 | –
CC(C)CN1Cc2nc(-c3ccc(NC(=O)NC4CC4)cc3)nc(N3CCOC[C@@H]3C)c2C1 [Example 65, (S)-1-cyclopropyl-3-(4-(6-isobutyl-4-(3-methylmorpholino)-6,7-dihydro-5H-pyrrolo[3,4-d]pyrimidin-2-yl)phenyl)urea] | > 10 | > 10 | –
CCNC(=O)Nc1ccc(-c2nc3c(c(N4CCOC[C@@H]4C)n2)CCN(CC(C)C)C3)cc1.O=CO [Example 76, (S)-1-ethyl-3-(4-(7-isobutyl-4-(3-methylmorpholino)-5,6,7,8-tetrahydropyrido[3,4-d]pyrimidin-2-yl)phenyl)urea formate] | > 10 | > 10 | –
CCNC(=O)N1CCc2c(nc(-c3ccc(NC(=O)NC4CC4)cc3)nc2N2CCOC[C@@H]2C)C1 [Example 88, (S)-2-(4-(3-cyclopropylureido)phenyl)-N-ethyl-4-(3-methylmorpholino)-5,6-dihydropyrido[3,4-d]pyrimidine-7(8H)-carboxamide] | > 10 | > 10 | –
CCNC(=O)Nc1ccc(-c2nc3c(c(N4CCOCC4)n2)CCN(C(=O)C(C)(C)C)C3)cc1 [Example 98, 1-ethyl-3-(4-(4-morpholino-7-pivaloyl-5,6,7,8-tetrahydropyrido[3,4-d]pyrimidin-2-yl)phenyl)urea] | > 10 | > 10 | –
CCNC(=O)Nc1ccc(-c2nc3c(c(N4CCOCC4)n2)CN(C)C3)cc1 [Example 69, 1-Ethyl-3-(4-(6-methyl-4-morpholino-6,7-dihydro-5H-pyrrolo[3,4-d]pyrimidin-2-yl)phenyl)urea] | > 10 | > 10 | –
CCNC(=O)Nc1ccc(-c2nc3c(c(N4CCOC[C@@H]4C)n2)CN(C)C3)cc1F [Example 85, (S)-1-ethyl-3-(2-fluoro-4-(6-methyl-4-(3-methylmorpholino)-6,7-dihydro-5H-pyrrolo[3,4-d]pyrimidin-2-yl)phenyl)urea] | > 10 | > 10 | –
C[C@H]1COCCN1c1nc(-c2ccc(NC(=O)Nc3ccn(C)n3)cc2)nc2c1CN(C)C2 [Example 84, (S)-1-(1-methyl-1H-pyrazol-3-yl)-3-(4-(6-methyl-4-(3-methylmorpholino)-6,7-dihydro-5H-pyrrolo[3,4-d]pyrimidin-2-yl)phenyl)urea] | > 10 | > 10 | –
CCNC(=O)Nc1ccc(-c2nc3c(c(N4CCOC[C@@H]4C)n2)CN(CC(F)(F)F)C3)cc1 [Example 68, (S)-1-ethyl-3-(4-(4-(3-methylmorpholino)-6-(2,2,2-trifluoroethyl)-6,7-dihydro-5H-pyrrolo[3,4-d]pyrimidin-2-yl)phenyl)urea] | > 10 | > 10 | –
C[C@H]1COCCN1c1nc(-c2ccc(NC(=O)NCCO)cc2)nc2c1CN(C)C2 [Example 73, (S)-1-(2-hydroxyethyl)-3-(4-(6-methyl-4-(3-methylmorpholino)-6,7-dihydro-5H-pyrrolo[3,4-d]pyrimidin-2-yl)phenyl)urea] | > 10 | > 10 | –
C[C@H]1COCCN1c1nc(-c2ccc(NC(=O)Nc3cccc(O)n3)cc2)nc2c1CN(C)C2 [Example 80, (S)-1-(6-hydroxypyridin-2-yl)-3-(4-(6-methyl-4-(3-methylmorpholino)-6,7-dihydro-5H-pyrrolo[3,4-d]pyrimidin-2-yl)phenyl)urea] | > 10 | 1 to 10 | –
CCOC(=O)N1Cc2nc(-c3ccc(NC(=O)NCCO)c(F)c3)nc(N3CCOC[C@@H]3C)c2C1 [Example 104, (S)-ethyl-2-(3-fluoro-4-(3-(2-hydroxyethyl)ureido)phenyl)-4-(3-methylmorpholino)-5H-pyrrolo[3,4-d]pyrimidine-6(7H)-carboxylate] | > 10 | > 10 | –
COC(=O)N1CCc2c(nc(-c3ccc(NC(=O)NC4CC4)cc3)nc2N2CCOC[C@@H]2C)C1 [Example 83, (S)-methyl 2-(4-(3-cyclopropylureido)phenyl)-4-(3-methylmorpholino)-5,6-dihydropyrido[3,4-d]pyrimidine-7(8H)-carboxylate] | > 10 | > 10 | –
Cc1cc(NC(=O)Nc2ccc(-c3nc4c(c(N5CCOC[C@@H]5C)n3)CN(C)C4)cc2)no1 [Example 72, (S)-1-(4-(6-methyl-4-(3-methylmorpholino)-6,7-dihydro-5H-pyrrolo[3,4-d]pyrimidin-2-yl)phenyl)-3-(5-methylisoxazol-3-yl)urea] | > 10 | > 10 | –
CCOC(=O)N1Cc2nc(-c3ccc(NC(=O)NC4CC4)cc3F)nc(N3CCOC[C@@H]3C)c2C1 [Example 131, (S)-ethyl 2-(4-(3-cyclopropylureido)-2-fluorophenyl)-4-(3-methylmorpholino)-5H-pyrrolo[3,4-d]pyrimidine-6(7H)-carboxylate] | > 10 | > 10 | –
CCOC(=O)N1Cc2nc(-c3ccc(NC(=O)Nc4ccncc4)cc3)nc(N3CCOC[C@@H]3C)c2C1 [Example 121, (S)-ethyl 4-(3-methylmorpholino)-2-(4-(3-(pyridin-4-yl)ureido)phenyl)-5H-pyrrolo[3,4-d]pyrimidine-6(7H)-carboxylate] | > 10 | > 10 | –
